From patent publication US7396666B2, “Glycosyltransferase, nucleic acid encoding the glycosyltransferase and method of testing canceration using the nucleic acid” (National Institute of Advanced Industrial Science and …, priority 2002, dated 2008)
Entries after “also recorded” stand apart in the source; their conditions may differ. Read-outs that look alike come from different tables or passages of the source.

What was measured:
Format in all cases: biochemical
[1] = target: T1, G9 polypeptide (Homo sapiens, UniProt Q7Z7M8); assay: Divalent metal ion requirement of G9 enzyme activity
T1 construct: made in house
T1 sequence (Q7Z7M8 26-397): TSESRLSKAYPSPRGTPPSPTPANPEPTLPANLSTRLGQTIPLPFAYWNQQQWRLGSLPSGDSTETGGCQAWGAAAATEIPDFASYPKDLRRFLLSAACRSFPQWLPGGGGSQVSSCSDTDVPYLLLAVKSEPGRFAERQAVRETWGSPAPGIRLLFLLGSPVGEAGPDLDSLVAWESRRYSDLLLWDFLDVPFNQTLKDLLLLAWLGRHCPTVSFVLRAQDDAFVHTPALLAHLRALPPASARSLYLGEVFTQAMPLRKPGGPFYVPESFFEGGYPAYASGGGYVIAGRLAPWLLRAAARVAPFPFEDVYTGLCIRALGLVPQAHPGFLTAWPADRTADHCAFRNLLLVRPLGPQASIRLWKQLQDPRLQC

[2] = target: T1, G9 polypeptide; assay: β1,3-N-acetylglucosaminyltransferase activity with synthetic mono-/oligosaccharide acceptor substrates ([14C]UDP-GlcNAc donor, scintillation counting); settings: for transferring activity for acceptor substrate (in words): GlcNAc transfer by G9 to synthetic acceptor substrates; for Relative activity: Substrate specificity of G9, 10 μM acceptor substrate, UDP-GlcNAc donor, 37° C., usually 16 hours, ND = not detected
Procedure: The FLAG peptide-fused G9 polypeptide obtained in the example above was measured for a β1,3-N-acetylglucosaminyltransferase activity with monosaccharaide/oligosaccharide/glycolipid/glycoprotein as substrates according to known methods (e.g., the above-described references and FEBS, 462, 289 (1999), J. Biol. Chem. 269, 14730-14737 (1994), J. Biol. Chem., 267, 23507 (1992), and J. Biol. Chem., 267, 2994 (1992)).
pNp-α-Glc, pNp-β-Glc, pNp-α-GlcNAc, pNp-β-GlcNAc, pNp-α-Gal, oNp-β-Gal, pNp-α-GalNAc, pNp-α-Xyl, oNp-β-Xyl, pNp-α-Fuc, Bz-α-Man, Bz-α-ManNAc, core1-α-pNp, core3-α-pNp, Bz-β-lactoside, GlcNAcβ1-4GlcNAcβ-Bz, and Galβ1-4GlcNAcα-pNp were used as acceptor substrates (see Table 5). These substrates can be purchased from, for example, Sigma Corp. or Toronto Research Chemicals Inc.
A basic reaction solution in the case of using a radiolabeled substrate as the donor substrate comprises 20 μl in total of 14 mM HEPES buffer (pH 7.4), 10 mM MnCl2, 0.15% Triton CF-54, 0.75 mM ATP, 50 μM UDP-GlcNAc (manufactured by Sigma), 4.5 μM (50 nCi) [^14C]UDP-GlcNAc (manufactured by Amersham Biosciences), 10 μM substrate (each of the above-described acceptor substrates), and an appropriate amount (5 to 10 μl) of the purified enzyme protein (enzyme source obtained in Example 4). Enzyme reaction was carried out at 37° C. for several hours up to 16 hours (usually for 16 hours).
After the completion of reaction, the resulting solution was supplemented with 200 μl of 0.1M KCl and lightly centrifuged, and then a supernatant was obtained. After being washed once with 10 ml of methanol, the supernatant was loaded onto Sep-Pak C18 Cartridge (Waters) equilibrated by two-time washing with 10 ml of 0.1 M KCl, and the substrate and a product in the supernatant were adsorbed in the cartridge. After the cartridge was washed twice with 1 ml of pure water for HPLC, the adsorbed substrate and product were eluted with 1 ml of methanol. Following the mixing with a liquid scintillator (ACSII; manufactured by Amersham Biosciences), the amount of radiation from the product was measured with a scintillation counter.

[3] = target: T1, G9 polypeptide; assay: Activity measurement with glycoproteins as acceptor substrates (SDS-PAGE, autoradiography, glycopeptidase F digestion); settings: 40 μg acceptor glycoprotein, 37° C., FIG. 4
Procedure: Enzyme reaction was carried out with glycoproteins as substrates. A reaction solution comprised 20 μl in total of 14 mM HEPES buffer (pH 7.4), 10 mM MnCl2, 0.15% Triton CF-54, 0.75 mM ATP, 50 μM UDP-GlcNAc (manufactured by Sigma), 4.5 μM (50 nCi) [^14C]UDP-GlcNAc (manufactured by Amersham Biosciences), 40 μg of an acceptor substrate, and an appropriate amount (5 to 10 μl) of a purified enzyme protein. A αl-acid glycoprotein (orosomucoid; manufactured by Sigma), ovalbumin (manufactured by Sigma), or ovomucoid (manufactured by Sigma) was used as the above described acceptor substrate. The enzyme purified with the anti-FLAG M1 antibody affinity gel in Example 4 was used as the above-described purified enzyme protein.
Reaction was carried out at 37° C. for several hours up to 16 hours. A portion of a reaction product was subjected to enzyme digestion with glycopeptidase F (GPF; manufactured by TAKARA) according to the instruction. The samples both before and after enzyme digestion were analyzed by 10% SDS-PAGE (see FIG. 4).

[4] = target: T1, G9 polypeptide; assay: Buffer and pH dependence of G9 enzyme activity
Procedure: Buffer conditions were investigated using the same reaction solution and reaction time as above but using HEPES (pH 6.75 to 7.4) and sodium cacodylate (pH 6.4 to 7.2) instead of 14 mM HEPES buffer (pH7.4) (see FIG. 2A).

[5] = metal ions at 2.5, 10 and 40 mM instead of 10 mM MnCl2, FIG. 2B

Which “effect of divalent metal ion on G9 activity (in words)” value (shortened to “effect of divalent metal ion”) [1, 5] does the source give for `[Cl][Cd][Cl]` [Cd, CdCl2] here?
Its value is “slight enhancing effect”.

For `[Cl-].[Cl-].[Co+2]` [Co ion, CoCl2], which “effect of divalent metal ion” value [1] is on record?
Its value is “significantly enhanced”.

Which results are given for `CC(=O)N[C@H]1[C@@H](Oc2ccc([N+](=O)[O-])cc2)O[C@H](CO)[C@@H](O[C@@H]2O[C@H](CO)[C@H](O)[C@H](O)[C@H]2O)[C@@H]1O` [Galβ1-4GlcNAcα-pNP]?
transferring activity for acceptor substrate (in words) [2]: particularly strong activity; also recorded: highest transferring activity; Relative activity [2]: 100%

Which results are given for `OC[C@H]1O[C@@H](O[C@H]2[C@H](O)[C@@H](O)[C@H](OCc3ccccc3)O[C@@H]2CO)[C@H](O)[C@@H](O)[C@H]1O` [Lactoside β-Bz]?
transferring activity for acceptor substrate (in words) ([2]; listed as Bz-β-lactoside): significant activity; also recorded: a certain amount of transferring activity; Relative activity [2]: 27%

With `[Cl-].[Cl-].[Mg+2]` [Mg, MgCl2] as the molecule, how does the “effect of divalent metal ion” value [1, 5] read?
The value was “no enhancing effect is substantially observed”.

Which “effect of divalent metal ion” value [1, 5] does the source give for `[Cl][Mn][Cl]` [Mn ion, MnCl2] here?
Its value is “particularly remarkably enhanced”.

Which “effect of divalent metal ion” value [1, 5] does the source give for `[Cl][Ni][Cl]` [Ni, NiCl2] here?
The value was “slight enhancing effect”.

For `[Cl-].[Cl-].[Zn+2]` [Zn, ZnCl2], which “effect of divalent metal ion” value [1, 5] is on record?
Its value is “no enhancing effect is substantially observed”.

B1: ovalbumin (protein, UniProt P01012 2-386, looked up)
Ovalbumin: GSIGAASMEFCFDVFKELKVHHANENIFYCPIAIMSALAMVYLGAKDSTRTQINKVVRFDKLPGFGDSIEAQCGTSVNVHSSLRDILNQITKPNDVYSFSLASRLYAEERYPILPEYLQCVKELYRGGLEPINFQTAADQARELINSWVESQTNGIIRNVLQPSSVDSQTAMVLVNAIVFKGLWEKAFKDEDTQAMPFRVTEQESKPVQMMYQIGLFRVASMASEKMKILELPFASGTMSMLVLLPDEVSGLEQLESIINFEKLTEWTSSNVMEERKIKVYLPRMKMEEKYNLTSVLMAMGITDVFSSSANLSGISSAESLKISQAVHAAHAEINEAGREVVGSAEAGVDAASVSEEFRADHPFLFCIKHIATNAVLFFGRCVSP
notes: glycoprotein acceptor substrate manufactured by Sigma
With B1 as the molecule, how does the “GlcNAc-transferring activity for glycoprotein acceptor substrate (in words)” value [3] read?
Its value is “relatively weak activity”.

B2: G9 polypeptide: novel human β1,3-N-acetyl-D-glucosaminyltransferase, FLAG peptide-fused, amino acids 26 to 397 of SEQ ID NO: 2 (SEQ ID NO: 16) (protein, listed as Homo sapiens)
chain: T1 sequence (Q7Z7M8 26-397)
modifications: FLAG peptide
What does the source list for B2?
pH of maximum activity ([4]; HEPES buffer (pH 6.75 to 7.4), FIG. 2A): ~7.0; pH dependence of activity (in words) ([4]; sodium cacodylate buffer, pH 6.4 to 7.2, FIG. 2A): rises with an increase in pH
